Experimental data as given in patent US9650365B2 (UNIVERSITY OF CONNECTICUT, priority 2014, dated 2017).
Read-outs that look alike come from different tables or passages of the source. Blank lines part the entries; values can stand above or below the molecule they belong to.

How the values were obtained:
HUVEC = HUVEC proliferation (MTS); format: cell-based, human
Text: In vivo angiogenesis is dependent on endothelial cell proliferation; therefore, the inhibition of HUVEC proliferation is commonly utilized as an early stage in vitro model of anti-angiogenic activity. […] Under normal conditions, HUVECs plated and grown on Matrigel migrate towards each other, align, and form tubes that resemble in vivo capillary beds. This assay is generally considered a more robust model of angiogenesis as it requires several aspects of proper vessel formation, including adhesion, migration, and tube formation.
HUVEC Cell Viability and Proliferation. HUVEC cell viability and proliferation will be assessed by measuring cellular metabolic activity using MTT (viability) or MTS (proliferation) according to the manufacturer's instructions. HUVECs (3000 cells/well) are seeded in a 96-well plate and allowed to attach overnight. […] For viability, the final value is a corrected optical density (570 nm-690 nm). All viability and GI50 values are from a minimum of three separate experiments performed in triplicate.
HUVEC Cell Viability and Proliferation. HUVEC cell proliferation was assessed by measuring cellular metabolic activity using standard MTS/PMS protocols according to manufacturer's instructions. Briefly, HUVECs (3,000 cells/well) were seeded in a 96-well plate and allowed to attach overnight. Cells were treated with varying concentrations of drug as indicated and proliferation was assessed after 72 h with MTS.

[1] = test system: Hh signaling (Gli1 mRNA) in C3H10T1/2 cells; assay: Down-regulation of endogenous Gli1 mRNA in Hh-dependent C3H10T1/2 cells; format: cell-based, mouse; conditions: for mrna remaining at 1 µM / IC50: Mus musculus; for mrna remaining at 1 µM: read-out: % Gli expression (1 μM)
Experimental: To determine whether the triazole functionality was required for inhibition of Hh signaling, the ability of Analogue 1 to down-regulate the well-characterized Hh pathway target gene Gli1 in the Hh-dependent C3H10T1/2 cell line was determined. In this cellular model, activation of the pathway with exogenous recombinant Hh ligand results in a characteristic up-regulation of Gli1 mRNA, while concomitant administration of a pathway inhibitor reduces Gli1 expression.
(§1) General Information. Protocols for general cell culture, qPCR and Hh inhibition in C3H10T1/2 and ASZ cells are as previously described.^28 Protocols for the initiation and growth of Math1-Cre-ER; Ptc^fl/fl medulloblastoma tumors, isolation and in vitro culture of MERP MB cells, as wells as the anti-proliferation and qPCR studies performed in these cells were as previously described.^a Sonic Hedgehog (C25II) recombinant mouse protein was purchased from Life Technologies. aData was analyzed using GraphPad Prism 5 and reported values represent mean±SEM for at least two separate experiments performed in triplicate.
(§2) In this well-studied model system for evaluating small molecule inhibition of Hh signaling, addition of an exogenous Hh agonist (recombinant Hh ligand or small molecule) results in a characteristic increase in Gli1 mRNA expression. Concomitant incubation with a pathway inhibitor reduces Gli1 expression. Analogues that reduced Gli1 mRNA levels below 20% in this assay were subsequently evaluated for their ability to reduce Gli1 mRNA expression levels in a concentration-dependent fashion in these cells and the Hh-dependent murine BCC cell line ASZ. In addition, several compounds were evaluated for their anti-proliferative effects in primary Hh-dependent medulloblastoma cells isolated from conditional patched knockout (Math1-Cre-ER; Ptc^fl/fl, MERP) mice. […] Finally, each of these analogues was evaluated for its ability to inhibit proliferation in human umbilical vein […] cells (HUVECs). In vivo angiogenesis is dependent on endothelial cell proliferation; therefore, the inhibition of HUVEC proliferation is commonly utilized as an early stage in vitro model of anti-angiogenic activity.

[2] = test system: Hh signaling (Gli1 mRNA) in ASZ cells; assay: Down-regulation of endogenous Gli1 mRNA in ASZ cells; format: cell-based, murine; conditions: Mus musculus
Experimental: as §1, §2

[3] = C3H 10T1/2, 1 μM, 24 hr incubation, relative to recombinant Hh ligand control (100%)
[4] = C3H 10T1/2, 24 hr incubation, read-out: IC50 (μM) C3H10T1/2
[5] = 48 hr incubation, read-out: IC50 (μM) ASZ
[6] = Homo sapiens, HUVEC, 72 h, read-out: GI50 (μM) HUVEC
[7] = C3H 10T1/2, 24 h, read-out: IC50 (μM) C3H10T1/2, 24 hr incubation
[8] = 48 h, read-out: IC50 (μM) ASZ, 48 hr incubation
[9] = Homo sapiens, HUVEC, 72 h, read-out: GI50 (μM) HUVEC, 72 h
[10] = C3H 10T1/2, read-out: IC50 (μM) Gli1-C3Hs

Molecule: 1-(sec-butyl)-4-(4-(4-(4-((2-(2,4-dichlorophenyl)-2-methyl-1,3-dioxolan-4-yl)methoxy)phenyl)piperazin-1-yl)phenyl)-1H-1,2,4-triazol-5(4H)-one [Compound 2a]
GI50 (HUVEC; read-out: GI50 HUVEC proliferation): 0.49 µM

IC50 [1, 4]: 0.42 ± 0.2 µM
IC50 [2, 5]: 0.45 ± 0.06 µM
Molecule: CCC(C)n1ncn(-c2ccc(N3CCN(c4ccc(OCC5COC(Cn6cncn6)(c6ccccc6)O5)cc4)CC3)cc2)c1=O (centres unmarked) [Compound 3a, 4-(4-(4-(4-((2-((1H-1,2,4-triazol-1-yl)methyl)-2-phenyl-1,3-dioxolan-4-yl)methoxy)phenyl)piperazin-1-yl)phenyl)-1-(sec-butyl)-1H-1,2,4-triazol-5(4H)-one]
mrna remaining at 1 µM [1, 3]: 13.1 ± 1.2%
GI50 (HUVEC; [6]): 8.3 ± 0.7 µM

Molecule: CCC(C)n1ncn(-c2ccc(N3CCN(c4ccc(OCC5COC(C)(Cn6cncn6)O5)cc4)CC3)cc2)c1=O (centres unmarked) [Compound 4a, 4-(4-(4-(4-((2-((1H-1,2,4-triazol-1-yl)methyl)-2-methyl-1,3-dioxolan-4-yl)methoxy)phenyl)piperazin-1-yl)phenyl)-2-(sec-butyl)-2,4-dihydro-3H-1,2,4-triazol-3-one]
mrna remaining at 1 µM [1, 3]: 61.4 ± 3.5%
GI50 (HUVEC; [6]): 18.4 ± 4.5 µM

Molecule: CCC(C)n1ncn(-c2ccc(N3CCN(c4ccc(OCC5COC(C)(C)O5)cc4)CC3)cc2)c1=O (centres unmarked) [Compound 5a, 1-(sec-butyl)-4-(4-(4-(4-((2,2-dimethyl-1,3-dioxolan-4-yl)methoxy)phenyl)piperazin-1-yl)phenyl)-1H-1,2,4-triazol-5(4H)-one]
mrna remaining at 1 µM [1, 3]: 71.4 ± 5.5%
GI50 (HUVEC; [6]): > 100 µM

Molecule: CC[C@H](C)n1ncn(-c2ccc(N3CCN(c4ccc(OCC5COC(Cn6cncn6)(c6ccc(Cl)cc6Cl)O5)cc4)CC3)cc2)c1=O (stereo partly drawn) [Compound 6a, 4-(4-(4-(4-((2-((1H-1,2,4-triazol-1-yl)methyl)-2-(2,4-dichlorophenyl)-1,3-dioxolan-4-yl)methoxy)phenyl)piperazin-1-yl)phenyl)-2-((S)-sec-butyl)-2,4-dihydro-3H-1,2,4-triazol-3-one]
mrna remaining at 1 µM ([1]; C3H 10T1/2, 24 h): 6.9 ± 3.1%
IC50 [1, 7]: 0.16 ± 0.04 µM
IC50 [2, 8]: 0.14 ± 0.008 µM
GI50 (HUVEC; [9]): 2.5 ± 0.3 µM

Molecule: CC[C@@H](C)n1ncn(-c2ccc(N3CCN(c4ccc(OCC5COC(Cn6cncn6)(c6ccc(Cl)cc6Cl)O5)cc4)CC3)cc2)c1=O (stereo partly drawn) [Compound 7a, 4-(4-(4-(4-((2-((1H-1,2,4-triazol-1-yl)methyl)-2-(2,4-dichlorophenyl)-1,3-dioxolan-4-yl)methoxy)phenyl)piperazin-1-yl)phenyl)-2-((R)-sec-butyl)-2,4-dihydro-3H-1,2,4-triazol-3-one]
mrna remaining at 1 µM ([1]; C3H 10T1/2, 24 h): 3 ± 0.9%
IC50 [1, 7]: 0.14 ± 0.04 µM
IC50 [2, 8]: 0.16 ± 0.07 µM
GI50 (HUVEC; [9]): 1.7 ± 0.4 µM

Molecule: CCCn1ncn(-c2ccc(N3CCN(c4ccc(OCC5COC(Cn6cncn6)(c6ccc(Cl)cc6Cl)O5)cc4)CC3)cc2)c1=O (centres unmarked) [Compound 8a, 4-(4-(4-(4-((2-((1H-1,2,4-triazol-1-yl)methyl)-2-(2,4-dichlorophenyl)-1,3-dioxolan-4-yl)methoxy)phenyl)piperazin-1-yl)phenyl)-1-propyl-1H-1,2,4-triazol-5(4H)-one]
mrna remaining at 1 µM ([1]; C3H 10T1/2, 24 h): 58.5 ± 6.4%
GI50 (HUVEC; [9]): 4.7 ± 0.3 µM

Molecule: O=[N+]([O-])c1ccc(N2CCN(c3ccc(OCC4COC(Cn5cncn5)(c5ccc(Cl)cc5Cl)O4)cc3)CC2)cc1 (centres unmarked) [Compound 10a, 1-(4-((2-((1H-1,2,4-triazol-1-yl)methyl)-2-(2,4-dichlorophenyl)-1,3-dioxolan-4-yl)methoxy)phenyl)-4-(4-nitrophenyl)piperazine]
mrna remaining at 1 µM ([1]; C3H 10T1/2, 24 h): 1.5 ± 0.05%
IC50 [1, 7]: 0.13 ± 0.03 µM
IC50 [2, 8]: 0.09 ± 0.01 µM
GI50 (HUVEC; [9]): 8.4 ± 0.7 µM

IC50 [1, 4]: 1.1 ± 0.17 µM
IC50 [2, 5]: 2.5 ± 0.7 µM
Molecule: CC[C@H](C)n1ncn(-c2ccc(N3CCN(c4ccc(OC[C@H]5CO[C@](C)(c6ccc(Cl)cc6Cl)O5)cc4)CC3)cc2)c1=O [Compound 14a, 2-((S)-sec-butyl)-4-(4-(4-(4-(((2S,4S)-2-(2,4-dichlorophenyl)-2-methyl-1,3-dioxolan-4-yl)methoxy)phenyl)piperazin-1-yl)phenyl)-2,4-dihydro-3H-1,2,4-triazol-3-one]
GI50 (HUVEC; [6]): 7.7 ± 4.4 µM

IC50 [1, 4]: > 10 µM
IC50 ([1]; C3H 10T1/2, read-out: inactive in the C3H10T1/2 MEFs at concentrations up to): > 10 µM
IC50 [2, 5]: 0.55 ± 0.07 µM
IC50 ([2]; read-out: IC50 down-regulation of Gli1 in ASZ cells): 0.55 µM
Molecule: CC[C@H](C)n1ncn(-c2ccc(N3CCN(c4ccc(OC[C@H]5CO[C@@](C)(c6ccc(Cl)cc6Cl)O5)cc4)CC3)cc2)c1=O [Compound 15a, 2-((S)-sec-butyl)-4-(4-(4-(4-(((2R,4S)-2-(2,4-dichlorophenyl)-2-methyl-1,3-dioxolan-4-yl)methoxy)phenyl)piperazin-1-yl)phenyl)-2,4-dihydro-3H-1,2,4-triazol-3-one]
GI50 (HUVEC; [6]): 78.3 ± 17.3 µM

IC50 [1, 4]: 0.47 ± 0.001 µM
IC50 [2, 5]: 0.38 ± 0.07 µM
Molecule: CC[C@H](C)n1ncn(-c2ccc(N3CCN(c4ccc(OC[C@@H]5CO[C@@](C)(c6ccc(Cl)cc6Cl)O5)cc4)CC3)cc2)c1=O [Compound 16a, 2-((S)-sec-butyl)-4-(4-(4-(4-(((2R,4R)-2-(2,4-dichlorophenyl)-2-methyl-1,3-dioxolan-4-yl)methoxy)phenyl)piperazin-1-yl)phenyl)-2,4-dihydro-3H-1,2,4-triazol-3-one]
GI50 (HUVEC; [6]): 18.3 ± 11.8 µM

IC50 [1, 4]: 6.6 ± 0.3 µM
IC50 [2, 5]: 2.8 ± 0.9 µM
Molecule: CC[C@@H](C)n1ncn(-c2ccc(N3CCN(c4ccc(OC[C@H]5CO[C@@](C)(c6ccc(Cl)cc6Cl)O5)cc4)CC3)cc2)c1=O [Compound 19a, 2-((R)-sec-butyl)-4-(4-(4-(4-(((2R,4S)-2-(2,4-dichlorophenyl)-2-methyl-1,3-dioxolan-4-yl)methoxy)phenyl)piperazin-1-yl)phenyl)-2,4-dihydro-3H-1,2,4-triazol-3-one]
GI50 (HUVEC; [6]): 65 ± 11.5 µM

Molecule: CCC(C)n1ncn(-c2ccc(N3CCN(c4ccc(O)cc4)CC3)cc2)c1=O (centres unmarked) [Compound 45a]
% Gli expression (1 μM) ([1]; 1 μM, 24 hr incubation, relative to recombinant Hh ligand control (100%)): 45.7 ± 3.0%
GI50 (HUVEC; 72 h, read-out: GI50 (μM) HUVEC): > 100 µM

IC50 ([1]; C3H 10T1/2, down-regulation of endogenous Gli1 mRNA, read-out: Hh pathway inhibition C3H10T1/2): 0.082 ± 0.02 µM
IC50 ([2]; down-regulation of endogenous Gli1 mRNA, read-out: Hh pathway inhibition ASZ): 0.04 ± 0.01 µM
Molecule: CS(=O)(=O)c1ccc(C(=O)Nc2ccc(Cl)c(-c3ccccn3)c2)c(Cl)c1 [GDC-0449, reference compound]

IC50 [1, 10]: 0.45 ± 0.09 µM
IC50 ([2]; read-out: IC50 (μM) Gli1-ASZs): 0.15 ± 0.01 µM
Molecule: C[C@H](O)Cn1ncn(-c2ccc(N3CCN(c4ccc(OCC5COC(Cn6cncn6)(c6ccc(Cl)cc6Cl)O5)cc4)CC3)cc2)c1=O (some centres unmarked) [Itz-psz #1 (S−)]

IC50 [1, 10]: 0.18 ± 0.02 µM
IC50 ([2]; read-out: IC50 (μM) Gli1-ASZs): 0.1 ± 0.01 µM
Molecule: C[C@@H](O)Cn1ncn(-c2ccc(N3CCN(c4ccc(OCC5COC(Cn6cncn6)(c6ccc(Cl)cc6Cl)O5)cc4)CC3)cc2)c1=O (some centres unmarked) [Itz-psz #2 (R−)]

Molecule: CC(=O)N1CCN(c2ccc(OCC3COC(Cn4ccnc4)(c4ccc(Cl)cc4Cl)O3)cc2)CC1 (centres unmarked) [ketoconazole, reference compound]
Hh inhibitory activity relative to ITZ ([1]; 1 μM): significant reduction in Hh inhibitory activity

Molecule: CC(C)N1CCN(c2ccc(OCC3COC(Cn4cncn4)(c4ccc(Cl)cc4Cl)O3)cc2)CC1 (centres unmarked) [terconazole, reference compound]
Hh inhibitory activity relative to ITZ ([1]; 1 μM): significant reduction in Hh inhibitory activity
